Assay results from ChEMBL document CHEMBL1909046, “DrugMatrix in vitro pharmacology data”.
pIC50: −log10 of the molar value.

Columns and labels:
[1] = molecular target: 5-hydroxytryptamine receptor 4 (Cavia porcellus, UniProt O70528); format: cell membranes, Dunkin-Hartley, Striatum, Membrane; further: in other assays of this panel Not Active means under 50% inhibition at 10 µM
[2] = DRUGMATRIX: Leukotriene, BLT (LTB4) radioligand binding (ligand: [3H]LTB4); format: cell membranes, Membrane; settings: u-937; Not Active = under 50% inhibition at 10 µM
[3] = molecular target: T1, Polyunsaturated fatty acid lipoxygenase ALOX15 (Oryctolagus cuniculus, UniProt P12530); test: biochemical; format: tissue-based, Reticulocytes;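 further: inhibition of 15-lipoxygenase enzyme activity measured with linoleic acid as the substrate; in other assays of this panel Not Active means under 50% inhibition at 10 µM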
T1 sequence (P12530 whole entry): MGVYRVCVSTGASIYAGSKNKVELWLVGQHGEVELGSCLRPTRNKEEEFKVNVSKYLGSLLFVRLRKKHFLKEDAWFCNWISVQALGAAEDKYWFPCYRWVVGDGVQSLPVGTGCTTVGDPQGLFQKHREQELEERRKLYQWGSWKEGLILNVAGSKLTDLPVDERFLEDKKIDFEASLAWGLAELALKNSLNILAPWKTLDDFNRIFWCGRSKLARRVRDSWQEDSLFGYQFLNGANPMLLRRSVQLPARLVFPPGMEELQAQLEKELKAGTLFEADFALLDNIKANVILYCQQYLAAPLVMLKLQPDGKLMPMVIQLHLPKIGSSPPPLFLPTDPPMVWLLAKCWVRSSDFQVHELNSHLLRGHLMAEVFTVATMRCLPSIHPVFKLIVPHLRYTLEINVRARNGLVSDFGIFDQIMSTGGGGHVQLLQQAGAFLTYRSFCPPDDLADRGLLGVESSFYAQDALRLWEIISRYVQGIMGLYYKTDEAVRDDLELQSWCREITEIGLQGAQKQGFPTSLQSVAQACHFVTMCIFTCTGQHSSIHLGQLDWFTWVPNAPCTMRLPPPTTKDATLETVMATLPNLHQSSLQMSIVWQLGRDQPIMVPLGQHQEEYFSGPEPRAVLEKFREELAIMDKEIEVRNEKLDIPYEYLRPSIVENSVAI

[4] = DRUGMATRIX: Nicotinic Acetylcholine radioligand binding (ligand: [125I] Epibatidine); format: cell membranes, Membrane; settings: imr-32; Not Active = under 50% inhibition at 10 µM
[5] = molecular target: Mu-type opioid receptor (Homo sapiens, UniProt P35372); test: DRUGMATRIX: Opiate mu (OP3, MOP) radioligand binding (ligand: [3H] Diprenorphine); format: cell membranes, CHO-K1, Membrane; settings: cho-k1; Not Active = under 50% inhibition at 10 µM
[6] = molecular target: Mitogen-activated protein kinase 14 (Homo sapiens, UniProt Q16539); set-up: species or system Escherichia coli;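 further: inhibition of p38alpha enzyme activity in a biochemical kinase assay, with myelin basic protein serving as substrate; in other assays of this panel Not Active means under 50% inhibition at 10 µM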
[7] = molecular target: Cytochrome P450 3A4 (Homo sapiens, UniProt P08684); settings: bti-tn-5b1-4; further: in other assays of this panel Not Active means under 50% inhibition at 10 µM
Sequence of Cytochrome P450 3A4 (P08684 whole entry): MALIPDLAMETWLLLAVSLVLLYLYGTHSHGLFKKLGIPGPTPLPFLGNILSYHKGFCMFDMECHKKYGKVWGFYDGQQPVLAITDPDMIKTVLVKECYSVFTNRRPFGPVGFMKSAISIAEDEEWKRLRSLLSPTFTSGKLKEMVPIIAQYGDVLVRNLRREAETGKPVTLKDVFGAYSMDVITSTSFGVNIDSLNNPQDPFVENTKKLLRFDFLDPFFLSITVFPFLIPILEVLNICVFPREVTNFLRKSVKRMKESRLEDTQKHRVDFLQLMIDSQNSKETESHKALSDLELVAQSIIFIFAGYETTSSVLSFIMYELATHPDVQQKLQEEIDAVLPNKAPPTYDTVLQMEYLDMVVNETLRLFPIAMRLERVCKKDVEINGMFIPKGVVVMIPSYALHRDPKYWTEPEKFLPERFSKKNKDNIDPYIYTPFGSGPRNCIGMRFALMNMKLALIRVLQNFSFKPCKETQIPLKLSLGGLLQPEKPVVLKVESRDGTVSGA

Sequence of Mitogen-activated protein kinase 14 (Q16539 whole entry): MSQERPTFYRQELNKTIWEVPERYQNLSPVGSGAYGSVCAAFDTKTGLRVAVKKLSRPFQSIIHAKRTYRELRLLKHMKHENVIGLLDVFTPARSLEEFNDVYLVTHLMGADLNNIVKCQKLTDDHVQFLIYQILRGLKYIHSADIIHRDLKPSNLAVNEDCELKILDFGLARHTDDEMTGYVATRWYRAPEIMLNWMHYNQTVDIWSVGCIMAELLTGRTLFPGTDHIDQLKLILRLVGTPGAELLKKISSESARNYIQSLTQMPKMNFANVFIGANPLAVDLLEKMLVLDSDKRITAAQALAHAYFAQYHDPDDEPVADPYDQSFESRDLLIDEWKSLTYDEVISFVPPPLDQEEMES
Sequence of Mu-type opioid receptor (P35372 whole entry): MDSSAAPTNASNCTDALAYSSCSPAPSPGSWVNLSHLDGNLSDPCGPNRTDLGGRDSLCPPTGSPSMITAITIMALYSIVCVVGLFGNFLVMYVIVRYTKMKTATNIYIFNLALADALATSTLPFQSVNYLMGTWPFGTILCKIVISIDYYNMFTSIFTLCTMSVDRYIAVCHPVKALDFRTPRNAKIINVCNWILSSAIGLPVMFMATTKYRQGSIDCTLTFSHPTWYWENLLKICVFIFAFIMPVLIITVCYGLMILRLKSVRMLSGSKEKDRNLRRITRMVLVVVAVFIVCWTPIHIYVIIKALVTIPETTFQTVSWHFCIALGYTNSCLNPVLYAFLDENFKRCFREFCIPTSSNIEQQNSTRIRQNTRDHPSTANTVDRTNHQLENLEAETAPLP
Sequence of 5-hydroxytryptamine receptor 4 (O70528 whole entry): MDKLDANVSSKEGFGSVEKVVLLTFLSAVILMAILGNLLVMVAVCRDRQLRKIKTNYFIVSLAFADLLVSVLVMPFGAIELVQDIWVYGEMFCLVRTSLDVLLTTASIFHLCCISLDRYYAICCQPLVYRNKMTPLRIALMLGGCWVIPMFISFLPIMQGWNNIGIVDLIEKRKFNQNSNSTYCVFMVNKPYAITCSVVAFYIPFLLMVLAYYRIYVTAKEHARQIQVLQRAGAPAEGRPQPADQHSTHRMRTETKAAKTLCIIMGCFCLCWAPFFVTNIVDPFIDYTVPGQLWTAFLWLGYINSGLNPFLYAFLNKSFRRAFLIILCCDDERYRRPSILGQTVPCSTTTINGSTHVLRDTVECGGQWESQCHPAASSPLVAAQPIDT

C[C@](O)(CS(=O)(=O)c1ccc(F)cc1)C(=O)Nc1ccc(C#N)c(C(F)(F)F)c1 [(R)-BICALUTAMIDE]
IC50 [1]: Not Active | IC50 [2]: Not Active | Ki [2]: Not Active | IC50 ([3]; reticulocytes): Not Active | IC50 [4]: Not Active | Ki [4]: Not Active | IC50 [5]: Not Active | IC50 [6]: Not Active | IC50 [7]: Not Active | Ki [7]: Not Active

CCCC(=O)Nc1ccc(OCC(O)CNC(C)C)c(C(C)=O)c1 (centres undefined) [ACEBUTOLOL]
IC50 [1]: Not Active | IC50 [2]: Not Active | Ki [2]: Not Active | IC50 ([3]; reticulocytes): Not Active | IC50 [4]: Not Active | Ki [4]: Not Active | IC50 [5]: Not Active | IC50 [6]: Not Active | IC50 [7]: Not Active | Ki [7]: Not Active

CC(=O)Nc1ccc(O)cc1 [ACETAMINOPHEN]
IC50 [1]: Not Active | IC50 [2]: Not Active | Ki [2]: Not Active | pIC50 ([3]; read-out: IC50): 4.55 | IC50 [4]: Not Active | Ki [4]: Not Active | IC50 [5]: Not Active | IC50 [6]: Not Active | IC50 [7]: Not Active | Ki [7]: Not Active

COc1cc2c(c3oc(=O)c4c(c13)CCC4=O)[C@@H]1C=CO[C@@H]1O2 [AFLATOXIN]
IC50 [1]: Not Active | Ki [1]: Not Active | IC50 [2]: Not Active | Ki [2]: Not Active | IC50 ([3]; reticulocytes): Not Active | Ki ([3]; reticulocytes): Not Active | IC50 [4]: Not Active | Ki [4]: Not Active | IC50 [5]: Not Active | Ki [5]: Not Active | IC50 [6]: Not Active | Ki [6]: Not Active | IC50 [7]: Not Active | Ki [7]: Not Active

N=C(N)NC(=O)c1nc(Cl)c(N)nc1N [AMILORIDE]
IC50 [1]: Not Active | IC50 [2]: Not Active | Ki [2]: Not Active | IC50 ([3]; reticulocytes): Not Active | IC50 [4]: Not Active | Ki [4]: Not Active | IC50 [5]: Not Active | IC50 [6]: Not Active | IC50 [7]: Not Active | Ki [7]: Not Active

Cc1cc(=O)n(-c2ccccc2)n1C [ANTIPYRINE]
IC50 [1]: Not Active | IC50 [2]: Not Active | Ki [2]: Not Active | IC50 ([3]; reticulocytes): Not Active | IC50 [4]: Not Active | Ki [4]: Not Active | IC50 [5]: Not Active | IC50 [6]: Not Active | IC50 [7]: Not Active | Ki [7]: Not Active

CN1C(=O)COc2c(C(=O)NC3CN4CCC3CC4)cc(Cl)cc21 (centres undefined) [AZASETRON]
IC50 [1]: Not Active | IC50 [2]: Not Active | Ki [2]: Not Active | IC50 ([3]; reticulocytes): Not Active | IC50 [4]: Not Active | Ki [4]: Not Active | IC50 [5]: Not Active | IC50 [6]: Not Active | IC50 [7]: Not Active | Ki [7]: Not Active

C[C@H]1C[C@H]2[C@@H]3CCC4=CC(=O)C=C[C@]4(C)[C@@]3(Cl)[C@@H](O)C[C@]2(C)[C@@]1(O)C(=O)CO [BECLOMETHASONE]
IC50 [1]: Not Active | IC50 [2]: Not Active | Ki [2]: Not Active | IC50 ([3]; reticulocytes): Not Active | IC50 [4]: Not Active | Ki [4]: Not Active | IC50 [5]: Not Active | IC50 [6]: Not Active | IC50 [7]: Not Active | Ki [7]: Not Active

CCOC(=O)[C@H](CCc1ccccc1)N[C@H]1CCc2ccccc2N(CC(=O)O)C1=O [BENAZEPRIL]
IC50 [1]: Not Active | IC50 [2]: Not Active | Ki [2]: Not Active | IC50 ([3]; reticulocytes): Not Active | IC50 [4]: Not Active | Ki [4]: Not Active | IC50 [5]: Not Active | IC50 [6]: Not Active | IC50 [7]: Not Active | Ki [7]: Not Active

Nc1c(CC(=O)O)cccc1C(=O)c1ccc(Br)cc1 [BROMFENAC]
IC50 [1]: Not Active | IC50 [2]: Not Active | Ki [2]: Not Active | IC50 ([3]; reticulocytes): Not Active | IC50 [4]: Not Active | Ki [4]: Not Active | IC50 [5]: Not Active | IC50 [6]: Not Active | IC50 [7]: Not Active | Ki [7]: Not Active

CCCCN1CCCCC1C(=O)Nc1c(C)cccc1C.Cl (centres undefined) [BUPIVACAINE HYDROCHLORIDE]
IC50 [1]: Not Active | IC50 [2]: Not Active | Ki [2]: Not Active | IC50 ([3]; reticulocytes): Not Active | IC50 [4]: Not Active | Ki [4]: Not Active | IC50 [5]: Not Active | IC50 [6]: Not Active | IC50 [7]: Not Active | Ki [7]: Not Active

ClC(Cl)Cl [CHLOROFORM]
IC50 [1]: Not Active | IC50 [2]: Not Active | Ki [2]: Not Active | IC50 ([3]; reticulocytes): Not Active | IC50 [4]: Not Active | Ki [4]: Not Active | IC50 [5]: Not Active | IC50 [6]: Not Active | IC50 [7]: Not Active | Ki [7]: Not Active

C=C1CC[C@H](O)C/C1=C/C=C1\CCC[C@]2(C)[C@@H]([C@H](C)CCCC(C)C)CC[C@@H]12 [CHOLECALCIFEROL]
IC50 [1]: Not Active | IC50 [2]: Not Active | Ki [2]: Not Active | IC50 ([3]; reticulocytes): Not Active | IC50 [4]: Not Active | Ki [4]: Not Active | IC50 [5]: Not Active | IC50 [6]: Not Active | IC50 [7]: Not Active | Ki [7]: Not Active

C[N+](C)(C)CCO.[Cl-] [CHOLINE CHLORIDE]
IC50 [1]: Not Active | IC50 [2]: Not Active | Ki [2]: Not Active | IC50 ([3]; reticulocytes): Not Active | IC50 [4]: Not Active | Ki [4]: Not Active | IC50 [5]: Not Active | IC50 [6]: Not Active | IC50 [7]: Not Active | Ki [7]: Not Active

CC(=O)OCC(=O)[C@@]1(O)CC[C@H]2[C@@H]3CCC4=CC(=O)CC[C@]4(C)[C@H]3C(=O)C[C@@]21C [CORTISONE ACETATE]
IC50 [1]: Not Active | IC50 [2]: Not Active | Ki [2]: Not Active | IC50 ([3]; reticulocytes): Not Active | IC50 [4]: Not Active | Ki [4]: Not Active | IC50 [5]: Not Active | IC50 [6]: Not Active | IC50 [7]: Not Active | Ki [7]: Not Active

O=c1ccc2ccccc2o1 [COUMARIN]
IC50 [1]: Not Active | IC50 [2]: Not Active | Ki [2]: Not Active | IC50 ([3]; reticulocytes): Not Active | IC50 [4]: Not Active | Ki [4]: Not Active | IC50 [5]: Not Active | IC50 [6]: Not Active | IC50 [7]: Not Active | Ki [7]: Not Active

CN(C)/N=N/c1[nH]cnc1C(N)=O [DACARBAZINE]
IC50 [1]: Not Active | IC50 [2]: Not Active | Ki [2]: Not Active | IC50 ([3]; reticulocytes): Not Active | IC50 [4]: Not Active | Ki [4]: Not Active | IC50 [5]: Not Active | IC50 [6]: Not Active | IC50 [7]: Not Active | Ki [7]: Not Active

COc1ccc2c(c1)[C@]13CCCC[C@@H]1[C@H](C2)N(C)CC3 [DEXTROMETHORPHAN]
IC50 [1]: Not Active | IC50 [2]: Not Active | Ki [2]: Not Active | IC50 ([3]; reticulocytes): Not Active | IC50 [4]: Not Active | Ki [4]: Not Active | IC50 [5]: Not Active | IC50 [6]: Not Active | IC50 [7]: Not Active | Ki [7]: Not Active

CC(=O)Nc1c(I)c(NC(C)=O)c(I)c(C(=O)O)c1I [DIATRIZOIC ACID]
IC50 [1]: Not Active | IC50 [2]: Not Active | Ki [2]: Not Active | IC50 ([3]; reticulocytes): Not Active | IC50 [4]: Not Active | Ki [4]: Not Active | IC50 [5]: Not Active | IC50 [6]: Not Active | IC50 [7]: Not Active | Ki [7]: Not Active

O=C(O)Cc1ccccc1Nc1c(Cl)cccc1Cl [DICLOFENAC]
IC50 [1]: Not Active | IC50 [2]: Not Active | Ki [2]: Not Active | IC50 ([3]; reticulocytes): Not Active | IC50 [4]: Not Active | Ki [4]: Not Active | IC50 [5]: Not Active | IC50 [6]: Not Active | IC50 [7]: Not Active | Ki [7]: Not Active

C[C@H]1O[C@@H](O[C@H]2[C@@H](O)C[C@H](O[C@H]3[C@@H](O)C[C@H](O[C@H]4CC[C@@]5(C)[C@H](CC[C@@H]6[C@@H]5CC[C@]5(C)[C@@H](C7=CC(=O)OC7)CC[C@]65O)C4)O[C@@H]3C)O[C@@H]2C)C[C@H](O)[C@@H]1O [DIGITOXIN]
IC50 [1]: Not Active | IC50 [2]: Not Active | Ki [2]: Not Active | IC50 ([3]; reticulocytes): Not Active | IC50 [4]: Not Active | Ki [4]: Not Active | IC50 [5]: Not Active | IC50 [6]: Not Active | IC50 [7]: Not Active | Ki [7]: Not Active
